The values that follow come from paper PMC7960226 (Science (New York, N.Y.), 2020).

Where two headings read alike, the source gives them in different places. Marks after values point to notes of the source that are not given here.

Usually Cmax stands for the highest concentration seen after dosing. What is called IC50 is the point on the concentration scale where inhibition reaches its midpoint. Read a high IC50 as weaker potency in that assay. As a reminder, the Papp is a coefficient for how fast a substance crosses the barrier. A higher Papp goes with fast passage. By bioavailability is commonly meant the share of a dose that reaches the circulation, judged against a reference dose that is usually intravenous. Read a low bioavailability as poor availability. What is called half-life is how long it takes for the measured level to halve. A lower half-life goes with rapid decline. In general, Kd refers to the concentration at which binding is half-saturated.

One data set has as its target T1, SLCO2B1 (Homo sapiens, UniProt O94956).
T1 sequence (O94956 1-709): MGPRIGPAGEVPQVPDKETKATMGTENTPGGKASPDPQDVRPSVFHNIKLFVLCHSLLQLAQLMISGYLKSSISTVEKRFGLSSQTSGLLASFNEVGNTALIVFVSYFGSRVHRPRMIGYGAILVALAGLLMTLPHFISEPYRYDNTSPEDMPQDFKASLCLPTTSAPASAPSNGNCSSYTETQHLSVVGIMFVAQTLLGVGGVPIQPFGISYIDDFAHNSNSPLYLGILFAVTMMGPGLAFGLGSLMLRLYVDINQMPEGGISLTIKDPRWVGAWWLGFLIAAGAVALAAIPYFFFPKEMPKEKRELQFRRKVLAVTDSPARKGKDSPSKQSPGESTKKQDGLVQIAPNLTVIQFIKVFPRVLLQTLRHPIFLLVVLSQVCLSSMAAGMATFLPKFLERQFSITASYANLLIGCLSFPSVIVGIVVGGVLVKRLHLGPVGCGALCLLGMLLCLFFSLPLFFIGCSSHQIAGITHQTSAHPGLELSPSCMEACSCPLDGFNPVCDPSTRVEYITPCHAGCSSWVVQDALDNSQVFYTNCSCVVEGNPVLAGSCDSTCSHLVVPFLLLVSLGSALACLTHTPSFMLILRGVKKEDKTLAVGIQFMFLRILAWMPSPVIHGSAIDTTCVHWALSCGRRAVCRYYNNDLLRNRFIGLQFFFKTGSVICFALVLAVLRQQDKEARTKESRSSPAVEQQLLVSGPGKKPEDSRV
The data set can be described thus: in vitro transporter inhibition, SLCO2B1. It is filed as biochemical. Particulars: Table 1, predicted target SLCO2B1.

A further data set has as its target T2, PTGS2 (Homo sapiens, UniProt P35354).
T2 sequence (P35354 18-604): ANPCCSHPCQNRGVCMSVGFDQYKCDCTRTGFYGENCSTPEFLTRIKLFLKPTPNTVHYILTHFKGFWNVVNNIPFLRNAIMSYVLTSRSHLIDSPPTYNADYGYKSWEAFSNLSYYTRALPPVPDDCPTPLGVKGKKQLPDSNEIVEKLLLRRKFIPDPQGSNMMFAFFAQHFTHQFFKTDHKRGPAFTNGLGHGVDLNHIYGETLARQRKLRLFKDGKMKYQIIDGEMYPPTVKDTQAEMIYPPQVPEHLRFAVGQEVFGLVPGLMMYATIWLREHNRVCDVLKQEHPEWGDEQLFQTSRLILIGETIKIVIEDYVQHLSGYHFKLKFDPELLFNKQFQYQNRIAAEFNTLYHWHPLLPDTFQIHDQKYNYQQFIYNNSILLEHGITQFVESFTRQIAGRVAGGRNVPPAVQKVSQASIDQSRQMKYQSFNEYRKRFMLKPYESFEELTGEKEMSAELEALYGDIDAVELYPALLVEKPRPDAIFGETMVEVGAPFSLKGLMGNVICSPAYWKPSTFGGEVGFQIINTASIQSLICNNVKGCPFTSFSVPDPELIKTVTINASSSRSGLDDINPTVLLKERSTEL
Nature of the data set: safety panel assay, PTGS2. In kind it is biochemical. The note with it: Table 2, PTGS2; accurate to ±20%.

The target in the next data set is PDE4D (Homo sapiens, UniProt Q08499). Nature of the data set: in vitro assay, PDE4D. In kind it is biochemical.
Sequence of PDE4D (Q08499 whole entry): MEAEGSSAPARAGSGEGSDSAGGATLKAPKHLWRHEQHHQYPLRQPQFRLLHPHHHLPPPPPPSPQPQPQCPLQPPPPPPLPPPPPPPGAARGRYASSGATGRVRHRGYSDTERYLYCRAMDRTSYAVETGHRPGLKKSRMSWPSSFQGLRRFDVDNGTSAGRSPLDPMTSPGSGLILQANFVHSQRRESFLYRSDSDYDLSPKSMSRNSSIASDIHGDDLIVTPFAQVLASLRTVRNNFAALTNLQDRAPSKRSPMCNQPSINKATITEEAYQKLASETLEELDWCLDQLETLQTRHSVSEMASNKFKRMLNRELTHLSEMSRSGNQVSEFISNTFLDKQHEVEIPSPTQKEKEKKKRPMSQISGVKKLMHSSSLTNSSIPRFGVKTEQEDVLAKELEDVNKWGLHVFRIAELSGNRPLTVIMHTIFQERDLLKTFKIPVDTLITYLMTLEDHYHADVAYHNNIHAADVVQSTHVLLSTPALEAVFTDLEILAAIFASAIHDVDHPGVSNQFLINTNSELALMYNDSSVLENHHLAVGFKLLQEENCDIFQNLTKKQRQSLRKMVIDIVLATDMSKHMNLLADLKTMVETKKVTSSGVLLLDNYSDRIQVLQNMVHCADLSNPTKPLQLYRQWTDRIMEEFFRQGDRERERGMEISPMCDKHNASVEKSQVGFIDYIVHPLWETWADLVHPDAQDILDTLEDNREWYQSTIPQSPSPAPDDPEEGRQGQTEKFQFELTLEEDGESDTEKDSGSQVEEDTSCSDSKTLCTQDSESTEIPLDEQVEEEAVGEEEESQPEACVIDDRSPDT
For data set [1], the system named is BioMAP Diversity PLUS panel. Nature of the data set: BioMAP Diversity PLUS panel of cell-based systems.
For data set [2] the following is noted: rat, in vivo, cited from earlier work.
In a further data set the target is SLC18A2 (Homo sapiens, UniProt Q05940). The data set can be described thus: transporter inhibition, SLC18A2. It is filed as biochemical. The note with it: Table 2, SLC18A2; accurate to ±20%.
Sequence of SLC18A2 (Q05940 whole entry, species assumed): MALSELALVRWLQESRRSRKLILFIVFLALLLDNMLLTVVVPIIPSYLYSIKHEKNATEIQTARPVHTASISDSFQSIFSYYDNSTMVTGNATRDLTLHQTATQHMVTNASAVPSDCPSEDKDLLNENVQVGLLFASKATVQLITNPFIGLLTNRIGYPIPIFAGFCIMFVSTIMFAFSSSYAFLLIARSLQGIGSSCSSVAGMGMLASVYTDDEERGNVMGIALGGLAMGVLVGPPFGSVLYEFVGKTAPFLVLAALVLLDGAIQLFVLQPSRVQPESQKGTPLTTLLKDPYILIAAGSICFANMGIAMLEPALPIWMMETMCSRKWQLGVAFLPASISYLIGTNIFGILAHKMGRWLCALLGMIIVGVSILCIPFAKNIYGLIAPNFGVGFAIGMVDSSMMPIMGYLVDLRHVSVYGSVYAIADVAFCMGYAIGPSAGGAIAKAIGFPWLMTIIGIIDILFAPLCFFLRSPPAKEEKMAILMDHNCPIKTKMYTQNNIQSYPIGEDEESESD
A further data set addresses T3, CHRM1 (Homo sapiens, UniProt P11229).
T3 sequence (P11229 1-460): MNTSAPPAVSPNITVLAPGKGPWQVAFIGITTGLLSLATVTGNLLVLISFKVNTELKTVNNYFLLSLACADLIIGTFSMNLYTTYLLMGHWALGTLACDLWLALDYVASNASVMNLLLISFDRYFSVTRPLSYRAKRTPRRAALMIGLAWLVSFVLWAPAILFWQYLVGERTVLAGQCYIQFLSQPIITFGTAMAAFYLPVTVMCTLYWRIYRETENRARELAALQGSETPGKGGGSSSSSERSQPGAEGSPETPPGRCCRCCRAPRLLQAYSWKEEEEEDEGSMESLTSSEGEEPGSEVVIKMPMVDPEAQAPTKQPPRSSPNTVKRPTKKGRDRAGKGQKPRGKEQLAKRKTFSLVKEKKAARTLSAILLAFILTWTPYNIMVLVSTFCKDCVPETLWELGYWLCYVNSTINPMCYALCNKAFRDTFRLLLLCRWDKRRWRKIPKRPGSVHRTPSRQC
The note with it: Table 2, CHRM1; accurate to ±20%.

The target of another data set is T4, ADRA1A (Homo sapiens, UniProt P35348).
T4 sequence (P35348 1-466): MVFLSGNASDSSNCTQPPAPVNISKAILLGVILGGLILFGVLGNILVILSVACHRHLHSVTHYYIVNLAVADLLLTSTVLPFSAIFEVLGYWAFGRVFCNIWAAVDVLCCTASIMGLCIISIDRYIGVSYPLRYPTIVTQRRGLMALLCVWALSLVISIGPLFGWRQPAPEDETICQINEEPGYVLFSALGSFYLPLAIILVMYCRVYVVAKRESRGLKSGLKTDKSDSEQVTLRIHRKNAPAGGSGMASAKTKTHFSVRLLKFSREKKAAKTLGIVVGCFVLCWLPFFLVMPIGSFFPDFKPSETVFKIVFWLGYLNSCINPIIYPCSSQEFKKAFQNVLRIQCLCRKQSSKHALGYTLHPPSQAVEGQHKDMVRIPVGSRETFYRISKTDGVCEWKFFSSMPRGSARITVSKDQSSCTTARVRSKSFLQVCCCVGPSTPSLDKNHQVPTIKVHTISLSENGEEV
Particulars: Table 2, ADRA1A; accurate to ±20%.

The target in another data set is SLC6A2 (Homo sapiens, UniProt P23975). The note with it: Table 2, SLC6A2; accurate to ±20%.
Sequence of SLC6A2 (P23975 whole entry, species assumed): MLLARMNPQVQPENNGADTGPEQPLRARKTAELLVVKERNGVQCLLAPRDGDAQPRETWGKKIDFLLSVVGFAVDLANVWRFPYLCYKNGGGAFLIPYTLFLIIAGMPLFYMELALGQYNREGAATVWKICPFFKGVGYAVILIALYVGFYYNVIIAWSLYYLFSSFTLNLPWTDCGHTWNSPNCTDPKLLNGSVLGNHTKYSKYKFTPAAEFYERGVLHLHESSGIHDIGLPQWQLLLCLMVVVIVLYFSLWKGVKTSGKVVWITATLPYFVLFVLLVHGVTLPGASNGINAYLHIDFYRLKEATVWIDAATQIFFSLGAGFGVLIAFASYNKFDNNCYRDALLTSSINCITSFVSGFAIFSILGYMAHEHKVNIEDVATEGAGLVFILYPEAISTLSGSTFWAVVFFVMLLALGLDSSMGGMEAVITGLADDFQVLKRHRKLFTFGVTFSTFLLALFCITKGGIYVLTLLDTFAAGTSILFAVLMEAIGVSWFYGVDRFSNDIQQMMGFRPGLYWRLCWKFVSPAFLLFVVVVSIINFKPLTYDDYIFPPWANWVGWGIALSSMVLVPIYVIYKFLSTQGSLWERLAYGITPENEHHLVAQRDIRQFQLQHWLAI
The conditions of data set [3]: rat, in vivo, 1 mg/kg.
The target in a further data set is T5, SLCO1B1 (Homo sapiens, UniProt Q9Y6L6).
T5 sequence (Q9Y6L6 1-691): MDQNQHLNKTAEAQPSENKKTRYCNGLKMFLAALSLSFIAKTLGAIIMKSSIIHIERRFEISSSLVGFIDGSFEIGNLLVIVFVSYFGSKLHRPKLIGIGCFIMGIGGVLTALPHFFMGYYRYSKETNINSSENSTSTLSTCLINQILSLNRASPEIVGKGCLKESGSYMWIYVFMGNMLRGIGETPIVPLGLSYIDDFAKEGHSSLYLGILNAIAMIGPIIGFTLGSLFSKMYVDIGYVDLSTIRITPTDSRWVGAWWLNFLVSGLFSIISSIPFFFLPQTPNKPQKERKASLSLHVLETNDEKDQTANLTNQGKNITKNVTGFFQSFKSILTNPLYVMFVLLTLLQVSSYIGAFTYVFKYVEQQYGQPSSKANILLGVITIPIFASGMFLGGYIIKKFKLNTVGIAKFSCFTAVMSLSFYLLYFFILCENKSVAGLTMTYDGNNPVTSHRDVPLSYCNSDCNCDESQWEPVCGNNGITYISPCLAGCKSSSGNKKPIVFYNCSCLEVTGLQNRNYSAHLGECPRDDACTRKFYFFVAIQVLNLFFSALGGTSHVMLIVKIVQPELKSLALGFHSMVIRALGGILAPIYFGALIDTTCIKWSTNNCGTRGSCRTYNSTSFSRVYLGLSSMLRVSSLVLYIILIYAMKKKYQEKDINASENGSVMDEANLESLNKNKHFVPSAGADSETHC
The data set can be described thus: in vitro transporter assay, SLCO1B1.

The nature of data set [4]: Madin-Darby canine kidney permeability assay.
Data set [5] is described as follows: Pharmacokinetics in rats after i.v. and oral administration.
In the next data set the target is PDE3A (Homo sapiens, UniProt Q14432). Nature of the data set: safety panel assay, PDE3A. It is filed as biochemical. Particulars: Table 2, PDE3A; accurate to ±20%.
Sequence of PDE3A (Q14432 whole entry, species assumed): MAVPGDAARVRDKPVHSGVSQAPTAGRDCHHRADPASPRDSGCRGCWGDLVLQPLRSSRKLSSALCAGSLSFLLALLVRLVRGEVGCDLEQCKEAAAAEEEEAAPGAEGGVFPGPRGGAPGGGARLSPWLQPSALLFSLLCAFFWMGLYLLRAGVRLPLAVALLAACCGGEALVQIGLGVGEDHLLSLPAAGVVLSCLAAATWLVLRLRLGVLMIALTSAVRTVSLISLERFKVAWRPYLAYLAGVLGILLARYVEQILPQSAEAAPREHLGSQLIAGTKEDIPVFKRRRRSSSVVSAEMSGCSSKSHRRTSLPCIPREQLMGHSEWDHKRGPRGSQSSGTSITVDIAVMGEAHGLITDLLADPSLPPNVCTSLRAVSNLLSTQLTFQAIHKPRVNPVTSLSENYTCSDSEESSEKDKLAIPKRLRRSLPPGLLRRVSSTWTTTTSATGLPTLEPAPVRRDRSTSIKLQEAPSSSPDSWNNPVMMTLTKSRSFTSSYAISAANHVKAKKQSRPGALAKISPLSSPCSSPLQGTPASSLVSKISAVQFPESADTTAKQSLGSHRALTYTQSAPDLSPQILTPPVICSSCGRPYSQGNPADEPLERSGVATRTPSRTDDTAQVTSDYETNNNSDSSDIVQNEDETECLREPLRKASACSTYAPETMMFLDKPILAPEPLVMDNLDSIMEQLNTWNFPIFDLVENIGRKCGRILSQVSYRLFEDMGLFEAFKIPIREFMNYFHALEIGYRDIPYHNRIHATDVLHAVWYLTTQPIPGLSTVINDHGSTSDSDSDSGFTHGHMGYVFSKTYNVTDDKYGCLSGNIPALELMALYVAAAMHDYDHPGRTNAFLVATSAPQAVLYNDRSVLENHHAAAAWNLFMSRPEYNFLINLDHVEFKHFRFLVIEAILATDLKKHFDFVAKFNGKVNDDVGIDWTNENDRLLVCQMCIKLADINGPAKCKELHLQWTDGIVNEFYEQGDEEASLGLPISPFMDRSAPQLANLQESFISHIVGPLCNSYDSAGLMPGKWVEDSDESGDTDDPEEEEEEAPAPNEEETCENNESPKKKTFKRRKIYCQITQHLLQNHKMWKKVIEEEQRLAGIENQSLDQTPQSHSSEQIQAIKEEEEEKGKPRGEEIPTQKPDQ
Another data set deals with DRD3 (Homo sapiens, UniProt P35462). The note with it: for Kd: read-out: dopamine D3 receptor Kd.
Sequence of DRD3 (P35462 whole entry, species assumed): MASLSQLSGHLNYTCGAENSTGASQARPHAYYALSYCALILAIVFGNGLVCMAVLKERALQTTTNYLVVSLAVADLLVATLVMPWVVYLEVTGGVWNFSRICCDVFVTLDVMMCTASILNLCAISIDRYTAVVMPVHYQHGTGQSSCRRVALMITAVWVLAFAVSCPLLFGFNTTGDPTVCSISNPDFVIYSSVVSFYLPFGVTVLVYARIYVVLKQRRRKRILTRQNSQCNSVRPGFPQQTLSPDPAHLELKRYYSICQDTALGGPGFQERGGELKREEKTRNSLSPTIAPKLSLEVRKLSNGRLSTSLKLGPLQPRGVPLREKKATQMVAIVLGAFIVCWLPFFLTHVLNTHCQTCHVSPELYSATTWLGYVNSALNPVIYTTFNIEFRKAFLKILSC
For a further data set, the system named is rats. The note with it: cited from earlier work.
Another data set has as its system rat brain. The note with it: prenatal treatment, rat brain ref 51; cited from earlier work.
In a further data set the target is DRD5 (Homo sapiens, UniProt P21918). The data set can be described thus: in vitro assay, DRD5. It is filed as binding.
Sequence of DRD5 (P21918 whole entry, species assumed): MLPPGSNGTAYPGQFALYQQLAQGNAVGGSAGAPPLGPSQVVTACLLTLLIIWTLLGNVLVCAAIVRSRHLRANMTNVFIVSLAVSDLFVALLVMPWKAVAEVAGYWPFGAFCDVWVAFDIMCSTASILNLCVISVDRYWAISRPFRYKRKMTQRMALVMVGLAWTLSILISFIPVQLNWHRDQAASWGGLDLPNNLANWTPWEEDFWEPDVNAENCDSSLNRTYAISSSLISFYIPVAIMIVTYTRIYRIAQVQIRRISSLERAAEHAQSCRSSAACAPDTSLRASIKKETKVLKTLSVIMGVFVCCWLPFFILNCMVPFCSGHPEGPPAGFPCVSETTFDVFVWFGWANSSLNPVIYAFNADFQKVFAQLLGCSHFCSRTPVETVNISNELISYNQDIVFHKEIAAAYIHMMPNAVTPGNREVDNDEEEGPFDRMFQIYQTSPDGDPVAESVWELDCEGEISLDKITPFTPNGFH
The conditions of data set [6]: human adults after repeated vaccination ref 43; cited from earlier work.

Regarding `O=S(=O)([O-])c1ccc(N=Nc2c(O)ccc3ccccc23)cc1.[Na+]` [D&C Orange No. 4], the Ki/IC50 on SLCO2B1 is 1.9 µM.
As to `N[C@@H](CS)C(=O)O` [Cysteine], on PTGS2, the “Ki/IC50 Or EC50” value came out at 4.7 µM.
`CCCCC(CC)COC(=O)CC(C(=O)OCC(CC)CCCC)S(=O)(=O)O` (centres unmarked) [Docusate sodium]: at SLCO2B1, the Ki/IC50 was 2.3 µM.
Take `CCOC(=O)c1ccccc1C(=O)OCC` [Diethyl phthalate]: the Ki/IC50 at PDE4D (Table 1, PDE4D tested in place of SEA-predicted PDE4B and PDE1) is 8.5 µM. Also, in [1] (BioMAP, 1.1 to 30 μM), the TNF-α modulation result is recorded as “modulated tumor necrosis factor–α (TNF-α) in a dose-dependent manner”. In [2] (iv), the “i.v. AUC 0–24 (d.n.)” value was 553 ^† nM-hour and the “t1/2 from i.v. dose” value was 1.0 ^† hours. In data set [2] (po), the Cmax is 253 nM and the “Oral AUC 0–last (d.n.)” value is given as 350 ^† nM-hour.
Regarding `COc1cc(S(=O)(=O)[O-])c(C)cc1N=Nc1c(O)ccc2cc(S(=O)(=O)[O-])ccc12.[Na+].[Na+]` [FD&C Red No. 40], the Ki/IC50 on SLCO2B1 was 4.7 µM.
With `Cc1ccc(C(C)C)c(O)c1` [Thymol], the “Ki/IC50 Or EC50” value was 25 µM on SLC18A2, 14 µM at CHRM1, 26 µM at ADRA1A and 28 µM on SLC6A2.
For the compound `Cc1ccc(N=Nc2c([O-])c(C(=O)O)cc3ccccc23)c(S(=O)(=O)[O-])c1.[Na+].[Na+]` [D&C Red No. 6], the “%F” value in data set [3] turned out to be 2.5%. Also, inhibition against SLCO1B1 (Table 4, target SLCO1B1) was half-maximal at 3.1 µM (IC50). In [4] (apparent permeability, Madin-Darby canine kidney permeability assay), the “MDCK-LE Papp” value was below 1.2 ×10⁻⁶ cm/s.
`CCCCCCCCCCCCCCCC[n+]1ccccc1` [Cetylpyridinium chloride] returned a Papp in [4] (dog, MDCK) below 0.5 ×10⁻⁶ cm/s. For the same compound, in data set [5] (rat, in vivo, 1 mg/kg), the bioavailability came out at 5.4%. The same compound gave a half-life in data set [5] (rat, in vivo, iv, 1 mg/kg) of 9.7 h. In data set [5] (rat, in vivo, po, 1 mg/kg), this compound came in with a Cmax of 260 nM. Moreover, the “i.v. AUC 0–24 (d.n.)” value in data set [5] (rats, i.v. 1 mg/kg, dose normalized) was 15,972 nM-hour. The “Oral AUC 0–last (d.n.)” value in [5] (rats, oral 1 mg/kg, dose normalized) was 4,052 nM-hour.
With `CC(O)CO` (centres unmarked) [propylene glycol], the “activity in the BioMAP cell-based systems” value in [1] (1.1, 3.3, 10, 30 μM) was “no measurable activity”.
Regarding `CCCCCCCCCCCCCCCC(=O)O` [Palmitic acid], the “Ki/IC50 Or EC50” value on PDE4D (Table 2, PDE4D, accurate to ±20%) is 6.6 µM; on SLC18A2, 4.4 µM; on PDE3A, 4.1 µM.
As to `CCOC(=O)c1ccc(O)cc1` [Ethylparaben], the “Ki/IC50 Or EC50” value at SLC18A2 came to 22 µM.
As to `CC1(C)[C@@H](O[C@H]2O[C@H](C(=O)O)[C@@H](O)[C@H](O)[C@H]2O[C@@H]2O[C@H](C(=O)O)[C@@H](O)[C@H](O)[C@H]2O)CC[C@]2(C)[C@H]3C(=O)C=C4[C@@H]5C[C@@](C)(C(=O)O)CC[C@]5(C)CC[C@@]4(C)[C@]3(C)CC[C@@H]12` [Glycyrrhizin], the Ki/IC50 on SLCO1B1 (Table 1, predicted target SLCO1B1) is 13 µM.
Consider `O=S(=O)([O-])c1ccc(N=Nc2c(O)ccc3cc(S(=O)(=O)[O-])ccc23)cc1.[Na+].[Na+]` [FD&C Yellow No. 6], for which, at SLCO2B1, the Ki/IC50 is 74 µM.
Consider `C[CH2][Hg][S]c1ccccc1C(=O)[O-].[Na+]` [Thimerosal], for which the IC50 on DRD3 (Table 4, target DRD3) was found to be 0.32 µM. Besides, the equilibrium dissociation constant (Kd) at DRD3 came to 0.32 µM. In the data set on rats (rats ref 48), the “striatal D2 receptor density (immunohistochemistry)” value is reported as “decline in striatal D2 receptor density”. Moreover, the behavioral effects result in the data set on rats (rats treated postnatally ref 48) was “impaired locomotor function, increased anxiety/neophobia in the open field, and alterations in social behavior”. Further, the “effect on serotonergic and dopaminergic systems” value in the data set on rat brain is “impaired the serotonergic and dopaminergic systems in the rat brain”.
Turning to `C[CH2][Hg]` [Ethyl mercury], the “Ki/IC50 Or EC50” value at DRD5 (Table 2, DRD5, accurate to ±20%) worked out at 0.15 µM; on DRD3 (Table 2, DRD3, accurate to ±20%), 0.21 µM. Besides, the results for the Kd on DRD5 (read-out: dopamine D5 receptor Kd), at DRD3 and on DRD3 (listed as major metabolite) were around 0.15 µM, around 0.21 µM and 0.21 µM, respectively. In addition, the “median blood concentration of ethyl mercury” value in data set [6] was 0.14 ng/mL.
